Patent US20100105661A1, “CONDENSED PYRIDINE COMPOUND” (Astellas Pharma Inc., priority 2007, published 2010)

Each compound was assayed against T1, human JAK3 kinase domain (Homo sapiens, UniProt P52333) (assay: JAK3 inhibition test). Conditions: 20 μM ATP in substrate solution, Biotin-Lyn-Substrate-2, one hour at ambient temperature; compounds of the Examples.
T1 construct: attached to the N-terminal of the 796-1124 (C-terminal) fragment of the human JAK3 protein; His-tag (N); purchased Carna Biosciences, Inc. (Kobe, Japan); host or cells: baculovirus expression system
T1 sequence (P52333 796-1124): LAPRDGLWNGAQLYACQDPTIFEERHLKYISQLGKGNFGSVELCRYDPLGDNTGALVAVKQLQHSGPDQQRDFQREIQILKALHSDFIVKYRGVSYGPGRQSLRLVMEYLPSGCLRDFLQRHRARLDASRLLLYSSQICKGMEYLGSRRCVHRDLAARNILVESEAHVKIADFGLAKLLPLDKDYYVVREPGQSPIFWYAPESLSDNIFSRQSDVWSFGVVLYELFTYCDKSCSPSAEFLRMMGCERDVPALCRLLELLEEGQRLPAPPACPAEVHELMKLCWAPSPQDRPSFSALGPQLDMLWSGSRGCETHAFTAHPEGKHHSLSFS
Type: biochemical
Description: The JAK3 inhibition test was performed as described below
Purified human JAK3 kinase domain was purchased from Carna Biosciences, Inc. (Kobe, Japan). This was afforded as described below.
As an assay buffer, 15 mM Tris-HCl pH 7.5 containing 0.01% Tween 20 and 2 mM DTT (dithiothreitol) was used.
After incubation at ambient temperature for one hour, the plate was washed with a cleaning buffer (50 mM Tris-HCl pH 7.5, 150 mM NaCl, 0.02% Tween 20), and a blocking buffer (a cleaning buffer containing 0.1% bovine serum albumin) was added to the plate. After incubation at ambient temperature for 30 minutes, the blocking buffer was removed, and an HRP-PY-20 solution (afforded by diluting HRP-PY-20 solution with the blocking buffer 500 times) was added. After incubation at ambient temperature for 30 minutes, the plate was washed four times, and a TMB substrate solution (Sigma) was added to the plate. After incubation at ambient temperature for 4 minutes, 1M sulfuric acid was added to stop the reaction. Enzyme activity was measured as absorbance at 450 nm.

Row | Compound | IC50 [nM]
1 | C[C@H]1CN(c2ccc(C#N)cn2)CC[C@H]1Nc1c(C(N)=O)cnc2[nH]cnc12 (racemic) [Example 49] | 2.2
2 | C[C@@H]1CN(c2ccc(C#N)cn2)CC[C@@H]1Nc1c(C(N)=O)cnc2[nH]ccc12 (racemic) [Example 65] | 0.78
3 | CNC(=O)C(=O)Nc1nn([C@H]2CN(c3ccc([N+](=O)[O-])cn3)CC[C@H]2C)c2c1cnc1[nH]ccc12 (racemic) [Example 77] | 4.8
4 | N#Cc1ccc(N2CC[C@@H](Nc3c(C(N)=O)cnc4[nH]ccc34)[C@H](F)C2)nc1 (racemic) [Example 82] | 2.7
5 | NC(=O)c1cnc2[nH]ccc2c1N[C@@H]1CCN(c2ccc(C(F)(F)F)nn2)C[C@@H]1F (racemic) [Example 91] | 3.2
6 | C[C@@H]1CCN(C(=O)N2CCC=N2)C[C@@H]1n1c(=O)[nH]c2cnc3[nH]ccc3c21 (racemic) [Example 110] | 10
7 | Nc1nn(C2CCCCCC2)c2c1cnc1[nH]ccc12 [Example 12, 1-cycloheptyl-1,6-dihydropyrazolo-[3,4-d]pyrrolo[2,3-b]pyridine-3-amine] | 10
8 | N#Cc1ccc(N2CCC(Nc3c(C(N)=O)cnc4[nH]ccc34)CC2)cc1 [Example 58] | 3.4
9 | CC[C@@H]1CCCC[C@@H]1n1nc(N)c2cnc3[nH]ccc3c21 [Example 129] | 3.8

Next, values leading:

Row | IC50 [nM] | Compound
10 | 1.7 | C[C@@H]1CCN(C(=O)CC#N)C[C@@H]1n1[nH]c(=O)c2cnc3[nH]ccc3c21 (racemic) [Example 22]
11 | 1.6 | C[C@@H]1CCN(c2ccc(C#N)cn2)C[C@@H]1n1[nH]c(=O)c2cnc3[nH]ccc3c21 (racemic) [Example 72]
12 | 1.1 | N#Cc1ccc(N2CC[C@@H](Nc3c(C(N)=O)cnc4[nH]ccc34)[C@@H](F)C2)nc1 (racemic) [Example 41]
13 | 1 | C[C@@H]1CN(c2ccc(C#N)nn2)CC[C@@H]1Nc1c(C(N)=O)cnc2[nH]ccc12 (racemic) [Example 66]
14 | 0.86 | C[C@@H]1CCN(C(=O)N2C[C@@H](F)C[C@H]2C#N)C[C@@H]1n1c(=O)[nH]c2cnc3[nH]ccc3c21 (mixture of isomers) [Example 2, (2R,4R)-4-fluoro-1-{[(3S,4S)-4-methyl-3-(2-oxo-3,6-dihydroimidazo[4,5-d]pyrrolo[2,3-b]pyridine-1(2H)-yl)-piperidine-1-yl]carbonyl}pyrrolidine-2-carbonitrile and (2R,4R)-4-fluoro-1-{[(3R,4R)-4-methyl-3-(2-oxo-3,6-dihydroimidazo[4,5-d]pyrrolo[2,3-b]pyridine-1(2H)-yl)-piperidine-1-yl]carbonyl}pyrrolidine-2-carbonitrile]
15 | 0.76 | N#Cc1ccc(N2CC[C@@H](Nc3c(C(N)=O)cnc4[nH]ccc34)[C@@H](F)C2)nn1 (racemic) [Example 6, 4-{[(3S,4R)-1-(6-cyanopyridazine-3-yl)-3-fluoropiperidine-4-yl]amino}-1H-pyrrolo[2,3-b]pyridine-5-carboxamide and 4-{[(3R,4S)-1-(6-cyanopyridazine-3-yl)-3-fluoropiperidine-4-yl]amino}-1-1H-pyrrolo[2,3-b]pyridine-5-carboxamide]
16 | 0.52 | C[C@@H]1CCN(C(=O)CC#N)C[C@@H]1n1nc(N)c2cnc3[nH]ccc3c21 (racemic) [Example 21]
17 | 0.3 | N#Cc1ccc(N2CC[C@@H](Nc3c(C(N)=O)cnc4[nH]ccc34)[C@@H](F)C2)nc1 [Example 94]

Same assay, conditions: reference compounds produced according to the cited publications, compared in the JAK3 test

Row | IC50 [nM] | Compound
18 | 230 | C[C@@H]1CCN(S(=O)(=O)c2cccnc2)C[C@@H]1N(C)c1ccnc2[nH]ccc12 [Reference compound A, reference compound]
19 | 31 | CS(=O)(=O)N1CCCC(Nc2c(Cl)cnc3[nH]ccc23)C1 (centres unmarked) [Reference compound B, reference compound]

What follows are compounds tested against HERG (Homo sapiens, UniProt Q12809) (assay: HERG assay). Conditions: low adverse effect.
HERG, sequence (Q12809 whole entry): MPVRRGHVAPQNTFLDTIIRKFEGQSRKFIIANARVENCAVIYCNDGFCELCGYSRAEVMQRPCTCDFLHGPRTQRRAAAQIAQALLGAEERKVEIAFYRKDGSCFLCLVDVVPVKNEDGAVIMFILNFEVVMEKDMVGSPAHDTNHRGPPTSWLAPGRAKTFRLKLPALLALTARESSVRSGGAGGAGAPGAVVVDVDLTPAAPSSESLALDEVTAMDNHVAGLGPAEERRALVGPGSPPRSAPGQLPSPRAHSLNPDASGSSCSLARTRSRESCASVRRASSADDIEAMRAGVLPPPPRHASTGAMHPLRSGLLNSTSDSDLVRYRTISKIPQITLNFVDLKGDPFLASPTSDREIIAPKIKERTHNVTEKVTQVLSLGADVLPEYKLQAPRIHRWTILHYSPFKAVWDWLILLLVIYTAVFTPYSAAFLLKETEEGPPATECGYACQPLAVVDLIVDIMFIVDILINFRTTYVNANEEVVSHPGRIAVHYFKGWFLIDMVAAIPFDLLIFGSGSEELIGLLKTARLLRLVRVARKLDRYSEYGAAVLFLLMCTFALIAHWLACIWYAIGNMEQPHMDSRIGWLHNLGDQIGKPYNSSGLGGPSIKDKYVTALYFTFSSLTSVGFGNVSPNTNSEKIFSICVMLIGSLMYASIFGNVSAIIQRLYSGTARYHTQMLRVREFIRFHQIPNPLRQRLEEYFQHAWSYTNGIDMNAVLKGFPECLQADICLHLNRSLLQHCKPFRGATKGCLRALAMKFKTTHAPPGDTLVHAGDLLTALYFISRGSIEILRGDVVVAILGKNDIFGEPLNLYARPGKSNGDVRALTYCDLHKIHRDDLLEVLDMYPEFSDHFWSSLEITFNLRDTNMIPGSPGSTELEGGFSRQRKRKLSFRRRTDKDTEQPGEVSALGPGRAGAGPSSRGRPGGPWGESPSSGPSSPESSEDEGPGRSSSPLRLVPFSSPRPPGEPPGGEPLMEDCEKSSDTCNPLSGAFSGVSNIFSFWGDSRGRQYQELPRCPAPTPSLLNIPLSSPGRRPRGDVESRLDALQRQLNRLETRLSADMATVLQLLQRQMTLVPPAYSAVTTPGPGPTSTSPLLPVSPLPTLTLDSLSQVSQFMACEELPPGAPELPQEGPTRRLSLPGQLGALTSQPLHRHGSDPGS

Row | Compound | IC50 [nM]
20 | N#Cc1ccc(N2CC[C@@H](Nc3c(C(N)=O)cnc4[nH]ccc34)[C@@H](F)C2)nc1 (racemic) [Example 41] | ≥ 100000
